Data: patent US20240100190A1, “Brain Disease Therapy Enhancing Inhibition of GABAergic Neurons” (priority 2022, published 2024)

How the values were obtained:
[1] = tested on: GABAergic neurons; experiment: Current-clamp cortical slice recordings with CNO application; assay type: cell-based, mice; conditions: after CNO, hM3Dq-expressing neurons in cortical slices, 13 neurons
Description: Briefly, anesthetized mice receive transcardial perfusion withN-methyl-D-glucamine (NMDG)-aCSF (92 mM NMDG, 2.5 mM KCl, 1.2 mM NaH2PO4, 30 mM NaHCO3, 20 mM N-2-Hydroxyethylpiperazine-N-2-Ethane Sulfonic Acid (HEPES), 25 mM glucose, 2 mM thiourea, 5 mM Na-ascorbate, 3 mM Na-pyruvate, 0.5 mM CaCl2·4H2O, and 10 mM MgSO4·7H2O; adjusted pH to 7.3-7.4 with concentrated HCl), and the brain is gently and rapidly extracted from the skull and then cut into 300 μm-thick sections with a vibratome (Leica VT1200S). […]
Brain slices are then bathed in room-temperature recording aCSF (124 mM NaCl, 2.5 mM KCl, 1.2 mM NaH2PO4, 24 mM NaHCO3, 5 mM HEPES, 12.5 mM glucose, 2 mM CaCl2·4H2O and 2 mM MgSO4·7H2O, ˜25° C.) and whole-cell recordings are made at the auditory cortex using Multiclamp 700B amplifier (Molecular Devices, www.moleculardevices.com, Menlo Park, California, USA) and Digital 1440A digitizer (Molecular Devices, www.moleculardevices.com, Menlo Park, California, USA). […] 0.3 mL CNO (0.2 mg/mL) is gently infused into the recording chamber (5-7 mL recording aCSF) and recorded for at least 20 minutes. The firing rate is analyzed with Clampfit 11.2 (Molecular Devices, www.moleculardevices.com, Menlo Park, California, USA). […]

[2] = tested on: GABAergic neurons; experiment: CNO administration and in vivo recordings in the auditory cortex; design: species or system mice
Description: In vivo recordings are performed in the ACs of mice using the same surgery setup described above.
For each time point, an average of six evoked responses is used. The inventors average the LFP amplitudes every six trials (MATLAB), which represents a 1-min recording. The representative waveforms are also plotted with MATLAB (MathWorks.Inc, Natick, US; https://ww2.mathworks.cn/). […] The results are exported into Excel for offline analysis and plotting.
C57BL/6J male mice (6-7 weeks old) are anesthetized with pentobarbital (100 mg/kg) supplemented with atropine (0.05 mg/kg, Sigma). The anesthetized mice are head-fixed using a stereotaxic device (RWD Life Science; Shen Zhen, China; https://www.rwdstco.com/). […] The PHP.eB serotype virus, which readily crosses the BBB for brain transduction, is produced using standard production methods. A glass pipette tip (at an angle of […] to about 45°) is used to slowly touch the surface of the transverse venous sinus with the injection pump running at a slow speed (100 nL/min). After the glass pipette tip penetrates the vessel, the injection speed is increased to 1,000 nL/min. A total of 50 μL of the virus (1.5E12 VGs/kg of body weight, VG, vector genome) is injected.
To verify the CNO administration can suppress the response to the AS through the potentiation of inhibition, electrophysiological recordings of neuronal firing and LFP response to the AS before and after the CNO application are performed.

[3] = tested on: GABAergic neurons; experiment: Laser pulse induced IPSC recording in cortex; assay type: cell-based, Vgat-Cre mice; conditions: hM3Dq and DIO-ChrimsonR-mCherry injected cortex; laser 0.1 Hz; baseline 100.22±0.66%
Description: FIG. 4A is a diagram showing the hM3Dq and DIO-ChrimsonR-mCherry injection into the cortex of Vgat-Cre mice.

[4] = Spontaneous locomotion detection (active time); conditions: after CNO administration in two groups
Description: The animals are housed separately under a standard 12-h light/dark cycle and stable temperature (23-25° C.) with full access to food and water.
A summation of each pixel value for the difference is used to decide whether the animal moves between these three frames. […] Animal movements are analyzed by the program. The active time for each mouse is determined every 24 h.
The behavioral effects after CNO intervention in the two groups are evaluated.

[5] = hM3Dq mice, n=30 recording sites

C[N+]1([O-])CCN(C2=Nc3cc(Cl)ccc3Nc3ccccc32)CC1 [CNO, clozapine-N-oxide]
mean highest firing rate in bursts [1]: 33.24±2.46 Hz | duration of activation of the new units after the CNO application ([2]; hM3Dq mice): 25 min | number of spike-sorted units after the CNO injection [2, 5]: 4.30±0.27 | number of spike-sorted units before CNO injection [2, 5]: 2.73±0.27 | maximum firing frequency during the bursts of the new units after CNO application ([2]; n=44 units, mean): 32.63±3.30 Hz | normalized IPSCs amplitude 35-40 min after CNO [3]: 250.62±6.46% | side effects (astrocytic reactivity and locomotion) [4]: not detected
